Results from US8440199B2, “Methods for mobilizing mesenchymal stem cells in a patient” (Imperial Innovations Limited, priority 2007, dated 2013).

Tests used:
EPCs = experiment: CFU-EPC bone marrow frequency; format: in vivo, mice; conditions: treated over 4 days, compared to controls, FIG. 22b
CXCR4 = experiment: Flow cytometry of CXCR4 expression on bone marrow HPCs and EPCs; format: in vivo, mice; conditions: treated 4 days
Procedure: (§1) Bone marrow was aspirated on day 5 and harvested cells were used to determine a, SDF-1α levels in bone marrow supernatant as determined by ELISA; b, % of bone marrow Lin^− Sca-1^+ cells expressing CXCR4; and c, % of bone marrow CD34^+ VEGFR2^+ cells expressing CXCR4. Harvested cells were also utilized in the following chemotaxis assays: d, number of HPCs; and e, EPCs undergoing chemotaxis towards 30 nM SDF-1α. Cells taken from bone marrow of mice treated with G-CSF (closed bars) or vehicle (PBS, open bars). f, number of HPCs; and g, EPCs undergoing chemotaxis towards 30 nM SDF-1α.
For flow cytometric analysis, cells were re-suspended in FACS buffer. To identify neutrophils in the bone marrow, surface expression of the granulocyte marker Ly-6G/Ly6C (Gr-1) was determined. Neutrophils were identified as Gr-1^high positive cells with a characteristic high side scatter profile. HPCs residing in the BM were selected as being negative for lineage (Lin^−) markers: CD3e, CD11b, CD45R, Ly-76, and Gr-1 and positive for Sca-1 (Lin^− Sca-1^+ cells) (Gerber et al., 2002; Uchida, et al., 1997). EPCs residing in the BM were selected as being positive for both CD34 and VEGFR2 (CD34^+ VEGFR2^+ cells) (Asahara et al., 1997; Yoon et al., 2005). Furthermore, neutrophils were stained for the surface expression of CXCR2, whilst Lin^− Sca-1^+ cells and CD34^+ VEGFR2^+ cells were stained for the cell surface expression of CXCR4. Samples were then washed and then quantified on a FACSAria cell sorter (BD Biosciences, Oxford, United Kingdom) and analysed using FACSDiva software.

HPCs [1] = conditions: treated over 4 days, compared to controls, FIG. 22a
Procedure: 24 hours after the last injection, bone marrow was aspirated for the enumeration of a, CFU-HPC bone marrow frequency; b, CFU-EPC bone marrow frequency; and c, CFU-SPC bone marrow frequency.
Mobilized cells were incubated for 11 days before quantification.

[2] = Total number of cells in the femurs; format: in vivo; conditions: treated over 4 days; not significantly different compared to control mice
Procedure: 24 hours after the last injection, mice were administered a CXCR4 antagonist (AMD3100, 5 mg/kg i.p), KC (30 μg/kg i.v.) or vehicle and blood was collected via cardiac puncture 60 minutes later for enumeration of circulating leukocyte, HPC, EPC, and stromal progenitor cell levels.
The perfusate was centrifuged and re-suspended in DMEM+20% FBS. In some experiments citrated blood was obtained via cardiac bleed and lysed for red blood cells. Bone marrow and perfusate cytospins, and blood smears were stained using DiffQuik for the enumeration of mononuclear cells, eosinophils, and neutrophils. Bone marrow, perfusate and lysed blood were then used for assays outlined below to enumerate HPCs (CFU-HPC), EPCs (CFU-EPC), SPCs (CFU-F).

HPCs [3] = experiment: In vitro chemotaxis of bone marrow HPCs towards SDF-1α; format: cell-based; conditions: bone marrow cells of mice treated 4 days; 30 nM SDF-1α, FIG. 23d, 23f
Procedure: as §1

[4] = tested on: mesenchymal stem cells (MSC); experiment: Example 1: MSC mobilisation, hind limb bone marrow perfusion and circulating blood, CFU-MSC assay; format: in vivo, mice; conditions: perfusate and blood, FIGS. 9-12
Procedure: 4×10^5 cells were added to 3 ml Mesencult media including supplements (05501 and 05502 Stemcell Technologies). Assay was performed in duplicate.

[5] = tested on: haematopoietic progenitor cells (HPC); experiment: Example 1: HPC mobilisation, hind limb bone marrow perfusion and circulating blood, CFU-HPC assay; format: in vivo, mice; conditions: G-CSF or VEGF 2.5 μg on 4 consecutive days, then AMD3100 (0.1 mM infusion or 5 mg/kg i.p.); perfusate and blood, FIGS. 1-4
Procedure: Assay was performed in duplicate Mobilised cells were maintained in semi-solid methylcellulose cultures for 11 days before quantification of the number of CFU-HPCs.

Substance: VEGF
- frequency/number of EPCs in the bone marrow (EPCs): no difference was observed
- CXCR4 expression on EPCs (CXCR4; CD34+ VEGFR2+ bone marrow cells, FIG. 23c): did not alter the expression of CXCR4 on either HPCs or EPCs
- CXCR4 expression on HPCs (CXCR4; Lin- Sca-1+ bone marrow cells, FIG. 23b): did not alter the expression of CXCR4 on either HPCs or EPCs
- frequency of HPCs in the bone marrow (HPCs [1]): no difference was observed
- total number of cells in the femurs [2]: 1.07±0.11×10^7 cells/femur
- HPC chemotaxis towards SDF-1α (HPCs [3]): abolished the ability of HPCs to migrate to SDF-1α
- MSC mobilization ([4]; G-CSF or VEGF 2.5 μg on 4 consecutive days, then AMD3100): mobilizes MSC into the blood
- MSC mobilization ([4]; agent alone): does not mobilize MSCs
- HPC mobilization [5]: inhibits the capacity for AMD3100 to mobilize HPCs
